The values that follow come from patent US20230082430A1 (C4 Therapeutics, Inc., priority 2019, published 2023).

For orientation: IC50 means the concentration at which inhibition is half-maximal.

The structures appear in SMILES notation.

For one test, the system named is NCIH929.1 cells. As to the kind of experiment: Cell viability assay for Table 2 (CellTiter-Glo 2.0, ATP quantification, 96 hr). In kind it is cell-based. The note with it: 96 h, NCIH929.1 cell viability, 96 hr, top concentration 1 μM, 14 points half log titration; read-out: IC50. The source says: Cell Viability Assay for Table 2
CellTiter-Glo® 2.0 Assay was purchased from Promega (Madison, Wis., USA). NCIH929.1 cell line was purchased from ATCC (Manassas, Va., USA). Cell culture flasks and 384-well microplates were acquired from VWR (Radnor, Pa., USA).
Turning to `CN(C)C1(C(=O)N2CCC(n3cc(Cc4ccc5c6c(cccc46)C(=O)N5C4CCC(=O)NC4=O)cn3)CC2)CCC1` (stereo not shown) [Compound 287, 3-[6-[[1-[1-[1-(dimethylamino)cyclobutanecarbonyl]-4-piperidyl]pyrazol-4-yl]methyl]-2-oxo-benzo[cd]indol-1-yl]piperidine-2,6-dione], the half-maximal inhibitory concentration (IC50) was < 1 nM.
The same measure, in the same setting: the same measure for `CC1(C(=O)N2CCC(N3CCN(Cc4ccc5c6c(cccc46)C(=O)N5C4CCC(=O)NC4=O)C3=O)CC2)CCC1` (stereo not shown) [Compound 181, 3-[6-[[3-[1-(1-methylcyclobutanecarbonyl)-4-piperidyl]-2-oxo-imidazolidin-1-yl]methyl]-2-oxo-benzo[cd]indol-1-yl]piperidine-2,6-dione]: < 1 nM; for `O=C1CCC(N2C(=O)c3cccc4c(Cc5ccc(CN6CCN(C(=O)c7ccccc7)CC6)cc5)ccc2c34)C(=O)N1` (stereo not shown) [Compound 111, 3-(6-(4-((4-benzoylpiperazin-1-yl)methyl)benzyl)-2-oxobenzo[cd]indol-1(2H)-yl)piperidine-2,6-dione]: < 1 nM; for `O=C1CCC(N2C(=O)c3cccc4c(Cc5cnn(C6CCN(CC7(C(F)(F)F)CCC7)CC6)c5)ccc2c34)C(=O)N1` (stereo not shown) [Compound 57, 3-(2-oxo-6-((1-(1-((1-(trifluoromethyl)cyclobutyl)methyl)piperidin-4-yl)-1H-pyrazol-4-yl)methyl)benzo[cd]indol-1(2H)-yl)piperidine-2,6-dione]: < 1 nM.
Regarding `O=C1CCC(N2C(=O)c3cccc4c(Cc5ccc(CN6C7COCC6C7)cc5)ccc2c34)C(=O)N1` (stereo not shown) [Compound 146, 3-[6-[[4-(3-oxa-6-azabicyclo[3.1.1]heptan-6-ylmethyl)phenyl]methyl]-2-oxo-benzo[cd]indol-1-yl]piperidine-2,6-dione], the IC50 was < 1 nM.
As to `O=C1CCC(N2C(=O)c3cccc4c(Cc5ccc(CN6CC7(COC7)C6)cc5)ccc2c34)C(=O)N1` (stereo not shown) [Compound 230, 3-(6-(4-((2-oxa-6-azaspiro[3.3)heptan-6-yl)methyl)benzyl)-2-oxobenzo[cd]indol-1(2H)-yl)piperidine-2,6-dione], the half-inhibitory concentration (IC50) was < 1 nM.
In the case of `CC(C)(C)CN1CCC(n2cc(Cc3ccc4c5c(cccc35)C(=O)N4C3CCC(=O)NC3=O)cn2)CC1` (stereo not shown) [Compound 63, 3-(6-((1-(1-neopentylpiperidin-4-yl)-1H-pyrazol-4-yl)methyl)-2-oxobenzo[cd]indol-1(2H)-yl)piperidine-2,6-dione], the IC50 is < 1 nM.
For `CC1(C(=O)N2CCC(c3cn(Cc4ccc5c6c(cccc46)C(=O)N5C4CCC(=O)NC4=O)nn3)CC2)CCC1` (stereo not shown) [Compound 125, 3-[6-[[4-[1-(1-methylcyclobutanecarbonyl)-4-piperidyl]triazol-1-yl]methyl]-2-oxo-benzo[cd]indol-1-yl]piperidine-2,6-dione], the IC50 was < 1 nM.
For `N#Cc1ccc(N2CCN(Cc3ccc(Cc4ccc5c6c(cccc46)C(=O)N5C4CCC(=O)NC4=O)cn3)CC2)c(F)c1` (stereo not shown) [Compound 279, 4-[4-[[5-[[1-(2,6-dioxo-3-piperidyl)-2-oxo-benzo[cd]indol-6-yl]methyl]-2-pyridyl]methyl]piperazin-1-yl]-3-fluoro-benzonitrile], the IC50 was < 1 nM.
Same read-out and setting: for `O=C1CCC(N2C(=O)c3cccc4c(Cc5cnn(C6CCN([C@@H]7CCC8(CCC8)C7)CC6)c5)ccc2c34)C(=O)N1` (stereo partly shown) [Compound 243] the value was < 1 nM; for `O=C1CCC(N2C(=O)c3cccc4c(Cc5ccc(CN6C7CCC6COC7)cc5)ccc2c34)C(=O)N1` (stereo not shown) [Compound 156, 3-[6-[[4-(3-oxa-8-azabicyclo[3.2.1]octan-8-ylmethyl)phenyl]methyl]-2-oxo-benzo[cd]indol-1-yl]piperidine-2,6-dione], < 1 nM; for `CC1(C(=O)N2CCC(C)(n3cc(Cc4ccc5c6c(cccc46)C(=O)N5C4CCC(=O)NC4=O)cn3)CC2)CCC1` (stereo not shown) [Compound 92, 3-(6-((1-(4-methyl-1-(1-methylcyclobutane-1-carbonyl)piperidin-4-yl)-1H-pyrazol-4-yl)methyl)-2-oxobenzo[cd]indol-1(2H)-yl)piperidine-2,6-dione], < 1 nM.
Take `O=C1CCC(N2C(=O)c3cccc4c(Cc5ccc(CN6CCC(Cc7ccc(F)cc7)CC6)cc5)ccc2c34)C(=O)N1` (stereo not shown) [Compound 157, 3-[6-[[4-[[4-[(4-fluorophenyl)methyl]-1-piperidyl]methyl]phenyl]methyl]-2-oxo-benzo[cd]indol-1-yl]piperidine-2,6-dione]: the 50% inhibitory concentration (IC50) was < 1 nM.
Regarding `O=C1CCC(N2C(=O)c3cccc4c(Cc5ccc(CN6CC(Oc7ccc(F)cc7)C6)cc5)ccc2c34)C(=O)N1` (stereo not shown) [Compound 120, 3-(6-(4-((3-(4-fluorophenoxy)azetidin-1-yl)methyl)benzyl)-2-oxobenzo[cd]indol-1(2H)-yl)piperidine-2,6-dione], the concentration for half-maximal inhibition (IC50) was < 1 nM.
As for `CN(Cc1ccc(Cc2ccc3c4c(cccc24)C(=O)N3C2CCC(=O)NC2=O)cc1)c1ccccc1` (stereo not shown) [Compound 229, 3-(6-(4-((methyl(phenyl)amino)methyl)benzyl)-2-oxobenzo[cd]indol-1(2H)-yl)piperidine-2,6-dione], the IC50 was < 1 nM.
In the case of `CC1(C(=O)N2CCC(C)(n3cc(Cc4ccc5c6c(cccc46)C(=O)N5C4CCC(=O)NC4=O)c(Cl)n3)CC2)CCC1` (stereo not shown) [Compound 133], the IC50 was < 1 nM.
For the compound `CC1(n2cc(Cc3ccc4c5c(cccc35)C(=O)N4C3CCC(=O)NC3=O)cn2)CCN(C(=O)C23CCN(CC2)C3)CC1` (stereo not shown) [Compound 74, 3-(6-((1-(1-(1-azabicydo[2.2.1]heptane-4-carbonyl)-4-methylpiperidin-4-yl)-1H-pyrazol-4-yl)methyl)-2-oxobenzo[cd]indol-1(2H)-yl)piperidine-2,6-dione], the half-maximal inhibitory concentration (IC50) is < 100 nM.
As to `CC1(n2cc(Cc3ccc4c5c(cccc35)C(=O)N4C3CCC(=O)NC3=O)nn2)CCN(C(=O)C2(C(F)(F)F)CC2)CC1` (stereo not shown) [Compound 211, 3-(6-((1-(4-methyl-1-(1-(trifluoromethyl)cyclopropane-1-carbonyl)piperidin-4-yl)-1H-1,2,3-triazol-4-yl)methyl)-2-oxobenzo[cd]indol-1(2H)-yl)piperidine-2,6-dione], the half-maximal inhibitory concentration (IC50) is < 1 nM.
On to `O=C1CCC(N2C(=O)c3cccc4c(Cc5ccc(CN6CCN(c7ccccc7F)CC6)cc5)ccc2c34)C(=O)N1` (stereo not shown) [Compound 188, 3-[6-[[4-[[4-(2-fluorophenyl)piperazin-1-yl]methyl]phenyl]methyl]-2-oxo-benzo[cd]indol-1-yl]piperidine-2,6-dione], for which the IC50 was < 1 nM.
In the case of `CC(C)(C)OC(=O)N1CCC(n2cc(Nc3ccc4c5c(cccc35)C(=O)N4C3CCC(=O)NC3=O)c(Cl)n2)CC1` (stereo not shown) [Compound 250, tert-butyl 4-[3-chloro-4-[[1-(2,6-dioxo-3-piperidyl)-2-oxo-benzo[cd]indol-6-yl]amino]pyrazol-1-yl]piperidine-1-carboxylate], the IC50 was < 100 nM.
The same measure, in the same setting: the same measure for `O=C1CCC(N2C(=O)c3cccc4c(Cc5ccc(CN6CCC7(CCCO7)CC6)cc5)cnc2c34)C(=O)N1` (stereo not shown) [Compound 222, 3-[23-[[4-(1-oxa-8-azaspiro[4.5]decan-8-ylmethyl)phenyl]methyl]-28-oxo-31,34-diazatricyclododeca-(2),1(21),7(23),22(24),25(31)-pentaen-34-yl]piperidine-2,6-dione]: < 1 nM; for `O=C1CCC(N2C(=O)c3cccc4c(Cc5ccc(CC6CCN(c7ccc(F)cc7)CC6)cc5)ccc2c34)C(=O)N1` (stereo not shown) [Compound 203, 3-[6-[[4-[[1-(4-fluorophenyl)-4-piperidyl]methyl]phenyl]methyl]-2-oxo-benzo[cd]indol-1-yl]piperidine-2,6-dione]: < 1 nM.
As to `CC1(C(=O)N2CCC(n3cc(C4(c5ccc6c7c(cccc57)C(=O)N6C5CCC(=O)NC5=O)CC4)cn3)CC2)CCC1` (stereo not shown) [Compound 163, 3-[6-[1-[1-[1-(1-methylcyclobutanecarbonyl)-4-piperidyl]pyrazol-4-yl]cyclopropyl]-2-oxo-benzo[cd]indol-1-yl]piperidine-2,6-dione], the IC50 was < 1 nM.
Take `N#CC1(C(=O)N2CCC(n3cc(Cc4ccc5c6c(cccc46)C(=O)N5C4CCC(=O)NC4=O)cn3)CC2)CC1` (stereo not shown) [Compound 38, 1-(4-(4-((1-(2,6-dioxopiperidin-3-yl)-2-oxo-l,2-dihydrobenzo[cd]indol-6-yl)methyl)-1H-pyrazol-1-yl)piperidine-1-carbonyl)cyclopropane-1-carbonitrile]: the IC50 is < 1 nM.

The test is the same for the next values; noted with them: NCIH929.1 cell viability, 96 hr, top concentration 1 μM, 14 points half log titration; read-out: IC50.
Take `CC1(n2cc(Cc3ccc4c5c(cccc35)C(=O)N4C3CCC(=O)NC3=O)cn2)CCN(C(=O)C23COC(C2)C3)CC1` (single isomer, unassigned) [Compound 239, 3-[6-[[1-[4-methyl-1-(2-oxabicyclo[2.1.1]hexane-4-carbonyl)-4-piperidyl]pyrazol-4-yl]methyl]-2-oxo-benzo[cd]indol-1-yl]piperidine-2,6-dione]: the concentration for half-maximal inhibition (IC50) is < 1 nM.
On to `CC(c1cnn(C2CCN(C(=O)C3(C)CCC3)CC2)c1)c1ccc2c3c(cccc13)C(=O)N2C1CCC(=O)NC1=O` (single isomer, unassigned) [Compound 149, 3-(6-(1-(1-(1-(1-methylcyclobutane-1-carbonyl)piperidin-4-yl)-1H-pyrazol-4-yl)ethyl)-2-oxobenzo[cd]indol-1(2H)-yl)piperidine-2,6-dione], for which the IC50 is < 1 nM.
Same read-out and setting: the same measure for `O=C1CCC(N2C(=O)c3cccc4c(Cc5ccc(CN6C7COCC6C7)cc5)ccc2c34)C(=O)N1` (stereo not shown) [Compound 226, 3-(6-(4-((3-oxa-6-azabicyclo[3.1.1]heptan-6-yl)methyl)benzyl)-2-oxobenzo[cd]indol-1(2H)-yl)piperidine-2,6-dione]: < 1 nM; for `CC1(CN2CCC(n3cc(Cc4ccc5c6c(cccc46)C(=O)N5C4CCC(=O)NC4=O)cn3)CC2)CCC1` (single isomer, unassigned) [Compound 237, 3-[6-[[1-[1-[(1-methylcyclobutyl)methyl]-4-piperidyl]pyrazol-4-yl]methyl]-2-oxo-benzo[cd]indol-1-yl]piperidine-2,6-dione]: < 1 nM.
